Test results: patent publication US20260116920A1, “HUMAN TRANSFERRIN RECEPTOR BINDING PEPTIDE” (PEPTIDREAM INC., priority 2021, published 2026)
pKd: −log10 of the molar value. Positions of bridges follow the written chain, without caps; N, C: chain ends. Non-standard residues stand in square brackets, D forms with d. Residues, ends and D or L forms follow the SMILES beside them. *: point of attachment. Trp(1-CH2COOH) = N[C@@H](Cc1cn(CC(=O)O)c2ccccc12)C(=O)O; NMePhe(3-Cl) = CN[C@@H](Cc1cccc(Cl)c1)C(=O)O; 3Pal(6-NH2) = Nc1ccc(C[C@H](N)C(=O)O)cn1; Lys(N3) = [N-]=[N+]=NCCCC[C@H](N)C(=O)O; NMeY = CN[C@@H](Cc1ccc(O)cc1)C(=O)O; 3Pal = N[C@@H](Cc1cccnc1)C(=O)O; 4Pal = N[C@@H](Cc1ccncc1)C(=O)O; Carboxymethyl = O=C(O)C*

Target: T1, human transferrin receptor (hTfR) (Homo sapiens, UniProt P02786)
T1 construct: made in house
T1 sequence (P02786 89-760 limits assumed): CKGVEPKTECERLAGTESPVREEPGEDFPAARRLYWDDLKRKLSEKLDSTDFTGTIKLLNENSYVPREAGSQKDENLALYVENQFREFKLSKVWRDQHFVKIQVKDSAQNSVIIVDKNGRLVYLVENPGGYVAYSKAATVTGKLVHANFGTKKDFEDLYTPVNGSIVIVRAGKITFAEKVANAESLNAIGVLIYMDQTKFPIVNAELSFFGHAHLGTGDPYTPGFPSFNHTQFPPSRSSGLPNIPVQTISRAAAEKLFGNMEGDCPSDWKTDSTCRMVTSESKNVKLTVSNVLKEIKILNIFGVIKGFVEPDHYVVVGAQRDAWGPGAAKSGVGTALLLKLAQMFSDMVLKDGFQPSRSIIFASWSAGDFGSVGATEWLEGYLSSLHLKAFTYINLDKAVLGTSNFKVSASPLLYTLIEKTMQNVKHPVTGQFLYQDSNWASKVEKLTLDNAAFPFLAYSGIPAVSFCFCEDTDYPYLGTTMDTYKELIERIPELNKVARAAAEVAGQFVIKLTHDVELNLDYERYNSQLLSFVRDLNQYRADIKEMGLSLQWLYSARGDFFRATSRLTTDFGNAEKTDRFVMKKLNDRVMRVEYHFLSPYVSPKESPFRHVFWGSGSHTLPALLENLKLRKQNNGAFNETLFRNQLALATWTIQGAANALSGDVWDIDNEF
Assay: Evaluation of molecular interaction between transferrin receptor (hTfR) and peptide using surface plasmon resonance (SPR)
Type: binding
Settings: KD class for binding to hTfR by SPR; peptide with the linker shown in the same line; 'low signal indicates no activity'; read-out: SPR
Procedure, shortened: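 Recombinant human TfR dimer (0.5 μM) was captured on a Ni-charged NTA chip and amine-coupled with EDC/NHS, then ethanolamine-capped. Peptides at 5–100 nM in HEPES pH 8.0 buffer with 150 mM NaCl, 0.05% Tween 20, 0.1% BSA and 1.0% DMSO were run by single-cycle kinetics; KD came from least-squares curve fitting.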

Row | SMILES | pKd
1 | CC[C@H](C)[C@@H]1NC(=O)[C@H](Cc2ccc(OC)cc2)NC(=O)[C@H](Cc2ccc(O)cc2)NC(=O)[C@H](CC(N)=O)NC(=O)[C@H](Cc2c[nH]c3ccccc23)N(C)C(=O)[C@H](C(C)C)NC(=O)[C@H](Cc2cccc(Cl)c2)N(C)C(=O)[C@H](C(C)C)NC(=O)[C@H](C)NC(=O)CSC[C@@H](C(=O)NCC(=O)N[C@@H](CCCCN=[N+]=[N-])C(N)=O)NC(=O)[C@H](Cc2ccc(O)cc2)N(C)C(=O)[C@H](Cc2ccc(O)cc2)NC(=O)[C@H](CCCNC(=N)N)NC(=O)[C@H](CCCNC(=N)N)NC(=O)[C@H]([C@@H](C)CC)NC1=O [894_3166] | 7.00 to 9.00
2 | CC[C@H](C)[C@@H]1NC(=O)[C@H](Cc2ccc(OCC(=O)O)cc2)NC(=O)[C@H](Cc2ccc(O)cc2)NC(=O)[C@H](CC(N)=O)NC(=O)[C@H](Cc2cn(CC(=O)O)c3ccccc23)NC(=O)[C@H](C(C)C)NC(=O)[C@H](Cc2cccc(Cl)c2)N(C)C(=O)[C@H](C(C)C)NC(=O)[C@H](C)NC(=O)CSC[C@@H](C(=O)NCC(=O)N[C@@H](CCCCN=[N+]=[N-])C(N)=O)NC(=O)[C@H](Cc2ccc(O)cc2)N(C)C(=O)[C@H](Cc2ccccc2)NC(=O)[C@H](CCCNC(=N)N)NC(=O)[C@H](CCC(N)=O)NC(=O)[C@H]([C@@H](C)CC)NC1=O [894_3176] | 7.00 to 9.00
3 | CC[C@H](C)[C@@H]1NC(=O)[C@H](Cc2ccc(OCC(=O)O)cc2)NC(=O)[C@H](Cc2ccc(O)cc2)NC(=O)[C@H](CC(N)=O)NC(=O)[C@H](Cc2cn(CC(=O)O)c3ccccc23)NC(=O)[C@H](C(C)C)NC(=O)[C@H](Cc2cccc(Cl)c2)N(C)C(=O)[C@H](C(C)C)NC(=O)[C@H](C)NC(=O)CSC[C@@H](C(=O)NCC(=O)N[C@@H](CCCCN=[N+]=[N-])C(N)=O)NC(=O)[C@H](Cc2ccc(O)cc2)N(C)C(=O)[C@H](Cc2ccccc2)NC(=O)[C@H](CCC(N)=O)NC(=O)[C@H](CCC(N)=O)NC(=O)[C@H]([C@@H](C)CC)NC1=O [894_3178] ({CH2CO}-AV[NMePhe(3-Cl)]V[Trp(1-CH2COOH)]NYY(Carboxymethyl)IIQQF[NMeY]CG[Lys(N3)]-NH2; thioether N-15) | 7.00 to 9.00
4 | CC[C@H](C)[C@@H]1NC(=O)[C@H](Cc2cccnc2)NC(=O)[C@H](Cc2ccc(O)cc2)NC(=O)[C@H](CC(N)=O)NC(=O)[C@H](Cc2cn(CC(=O)O)c3ccccc23)NC(=O)[C@H](C(C)C)NC(=O)[C@H](Cc2cccc(Cl)c2)N(C)C(=O)[C@H](C(C)C)NC(=O)[C@H](C)NC(=O)CSC[C@@H](C(=O)NCC(=O)N[C@@H](CCCCN=[N+]=[N-])C(N)=O)NC(=O)[C@H](Cc2ccc(O)cc2)N(C)C(=O)[C@H](Cc2ccncc2)NC(=O)[C@H](CCCNC(=N)N)NC(=O)[C@H](CCCNC(=N)N)NC(=O)[C@H]([C@@H](C)CC)NC1=O [894_3185] ({CH2CO}-AV[NMePhe(3-Cl)]V[Trp(1-CH2COOH)]NY[3Pal]IIRR[4Pal][NMeY]CG[Lys(N3)]-NH2; thioether N-15) | 7.00 to 9.00
5 | CC[C@H](C)[C@@H]1NC(=O)[C@H](Cc2cccnc2)NC(=O)[C@H](Cc2ccc(N)nc2)NC(=O)[C@H](CC(N)=O)NC(=O)[C@H](Cc2cn(CC(=O)O)c3ccccc23)NC(=O)[C@H](C(C)C)NC(=O)[C@H](Cc2cccc(Cl)c2)N(C)C(=O)[C@H](C(C)C)NC(=O)[C@H](C)NC(=O)CSC[C@@H](C(=O)NCC(=O)N[C@@H](CCCCN=[N+]=[N-])C(N)=O)NC(=O)[C@H](Cc2ccc(O)cc2)N(C)C(=O)[C@H](Cc2ccncc2)NC(=O)[C@H](CCCNC(=N)N)NC(=O)[C@H](CCCNC(=N)N)NC(=O)[C@H]([C@@H](C)CC)NC1=O [894_3186] ({CH2CO}-AV[NMePhe(3-Cl)]V[Trp(1-CH2COOH)]N[3Pal(6-NH2)][3Pal]IIRR[4Pal][NMeY]CG[Lys(N3)]-NH2; thioether N-15) | 7.00 to 9.00
6 | CC[C@H](C)[C@@H]1NC(=O)[C@H](Cc2ccc(OC)cc2)NC(=O)[C@H](Cc2ccc(N)nc2)NC(=O)[C@H](CC(N)=O)NC(=O)[C@H](Cc2cn(CC(=O)O)c3ccccc23)NC(=O)[C@H](C(C)C)NC(=O)[C@H](Cc2cccc(Cl)c2)N(C)C(=O)[C@H](C(C)C)NC(=O)[C@H](C)NC(=O)CSC[C@@H](C(=O)NCC(=O)N[C@@H](CCCCN=[N+]=[N-])C(N)=O)NC(=O)[C@H](Cc2ccc(O)cc2)N(C)C(=O)[C@H](Cc2ccncc2)NC(=O)[C@H](CCCNC(=N)N)NC(=O)[C@H](CCCNC(=N)N)NC(=O)[C@H]([C@@H](C)CC)NC1=O [894_3187] | 7.00 to 9.00
7 | CC[C@H](C)[C@@H]1NC(=O)[C@H](Cc2cccnc2)NC(=O)[C@H](Cc2ccc(O)cc2)NC(=O)[C@H](CC(N)=O)NC(=O)[C@H](Cc2c[nH]c3ccccc23)NC(=O)[C@H](C(C)C)NC(=O)[C@H](Cc2cccc(Cl)c2)N(C)C(=O)[C@H](C(C)C)NC(=O)[C@H](C)NC(=O)CSC[C@@H](C(=O)NCC(=O)N[C@@H](CCCCN=[N+]=[N-])C(N)=O)NC(=O)[C@H](Cc2ccc(O)cc2)N(C)C(=O)[C@H](Cc2ccncc2)NC(=O)[C@H](CCCNC(=N)N)NC(=O)[C@H](CCCNC(=N)N)NC(=O)[C@H]([C@@H](C)CC)NC1=O [894_3188] ({CH2CO}-AV[NMePhe(3-Cl)]VWNY[3Pal]IIRR[4Pal][NMeY]CG[Lys(N3)]-NH2; thioether N-15) | 7.00 to 9.00
8 | CC[C@H](C)[C@@H]1NC(=O)[C@H](Cc2cccnc2)NC(=O)[C@H](Cc2ccc(N)nc2)NC(=O)[C@H](CC(N)=O)NC(=O)[C@H](Cc2c[nH]c3ccccc23)NC(=O)[C@H](C(C)C)NC(=O)[C@H](Cc2cccc(Cl)c2)N(C)C(=O)[C@H](C(C)C)NC(=O)[C@H](C)NC(=O)CSC[C@@H](C(=O)NCC(=O)N[C@@H](CCCCN=[N+]=[N-])C(N)=O)NC(=O)[C@H](Cc2ccc(O)cc2)N(C)C(=O)[C@H](Cc2ccncc2)NC(=O)[C@H](CCCNC(=N)N)NC(=O)[C@H](CCCNC(=N)N)NC(=O)[C@H]([C@@H](C)CC)NC1=O [894_3189] ({CH2CO}-AV[NMePhe(3-Cl)]VWN[3Pal(6-NH2)][3Pal]IIRR[4Pal][NMeY]CG[Lys(N3)]-NH2; thioether N-15) | 7.00 to 9.00

The next lines start with the values.

Row | pKd | SMILES
9 | 7.00 to 9.00 | CC[C@H](C)[C@@H]1NC(=O)[C@H](Cc2ccc(OCC(=O)O)cc2)NC(=O)[C@H](Cc2ccc(O)cc2)NC(=O)[C@H](CC(N)=O)NC(=O)[C@H](Cc2cn(CC(=O)O)c3ccccc23)NC(=O)[C@H](C(C)C)NC(=O)[C@H](Cc2cccc(Cl)c2)N(C)C(=O)[C@H](C(C)C)NC(=O)[C@H](C)NC(=O)CSC[C@@H](C(=O)NCC(=O)N[C@@H](CCCCN=[N+]=[N-])C(N)=O)NC(=O)[C@H](Cc2ccc(O)cc2)N(C)C(=O)[C@H](Cc2ccccc2)NC(=O)[C@H](CCCNC(=N)N)NC(=O)[C@H](CCCNC(=N)N)NC(=O)[C@H]([C@@H](C)CC)NC1=O [894_3171]
10 | 7.00 to 9.00 | CC[C@H](C)[C@@H]1NC(=O)[C@H](Cc2ccc(OCC(=O)O)cc2)NC(=O)[C@H](Cc2ccc(O)cc2)NC(=O)[C@H](CC(N)=O)NC(=O)[C@H](Cc2cn(CC(=O)O)c3ccccc23)NC(=O)[C@H](C(C)C)NC(=O)[C@H](Cc2cccc(Cl)c2)N(C)C(=O)[C@H](C(C)C)NC(=O)[C@H](C)NC(=O)CSC[C@@H](C(=O)NCC(=O)N[C@@H](CCCCN=[N+]=[N-])C(N)=O)NC(=O)[C@H](Cc2ccc(O)cc2)N(C)C(=O)[C@H](Cc2ccccc2)NC(=O)[C@H](CCCNC(=N)N)NC(=O)[C@H](CCC(=O)NCCOCCOCCOCCOCCOCCOCCOCCOC)NC(=O)[C@H]([C@@H](C)CC)NC1=O [894_3172]
11 | 7.00 to 9.00 | CC[C@H](C)[C@@H]1NC(=O)[C@H](Cc2ccc(OCC(=O)O)cc2)NC(=O)[C@H](Cc2ccc(O)cc2)NC(=O)[C@H](CC(N)=O)NC(=O)[C@H](Cc2cn(CC(=O)O)c3ccccc23)NC(=O)[C@H](C(C)C)NC(=O)[C@H](Cc2cccc(Cl)c2)N(C)C(=O)[C@H](C(C)C)NC(=O)[C@H](C)NC(=O)CSC[C@@H](C(=O)NCC(=O)N[C@@H](CCCCN=[N+]=[N-])C(N)=O)NC(=O)[C@H](Cc2ccc(O)cc2)N(C)C(=O)[C@H](Cc2ccccc2)NC(=O)[C@H](CCC(=O)NCCOCCOCCOCCOCCOCCOCCOCCOC)NC(=O)[C@H](CCCNC(=N)N)NC(=O)[C@H]([C@@H](C)CC)NC1=O [894_3173]
12 | 7.00 to 9.00 | CC[C@H](C)[C@@H]1NC(=O)[C@H](Cc2ccc(OCC(=O)O)cc2)NC(=O)[C@H](Cc2ccc(O)cc2)NC(=O)[C@H](CC(N)=O)NC(=O)[C@H](Cc2cn(CC(=O)O)c3ccccc23)NC(=O)[C@H](C(C)C)NC(=O)[C@H](Cc2cccc(Cl)c2)N(C)C(=O)[C@H](C(C)C)NC(=O)[C@H](C)NC(=O)CSC[C@@H](C(=O)NCC(=O)N[C@@H](CCCCN=[N+]=[N-])C(N)=O)NC(=O)[C@H](Cc2ccc(O)cc2)N(C)C(=O)[C@H](Cc2ccccc2)NC(=O)[C@H](CCC(N)=O)NC(=O)[C@H](CCCNC(=N)N)NC(=O)[C@H]([C@@H](C)CC)NC1=O [894_3177]
13 | 7.00 to 9.00 | CC[C@H](C)[C@@H]1NC(=O)[C@H](Cc2ccc(OC)cc2)NC(=O)[C@H](Cc2ccc(N)nc2)NC(=O)[C@H](CC(N)=O)NC(=O)[C@H](Cc2c[nH]c3ccccc23)NC(=O)[C@H](C(C)C)NC(=O)[C@H](Cc2cccc(Cl)c2)N(C)C(=O)[C@H](C(C)C)NC(=O)[C@H](C)NC(=O)CSC[C@@H](C(=O)NCC(=O)N[C@@H](CCCCN=[N+]=[N-])C(N)=O)NC(=O)[C@H](Cc2ccc(O)cc2)N(C)C(=O)[C@H](Cc2ccncc2)NC(=O)[C@H](CCCNC(=N)N)NC(=O)[C@H](CCCNC(=N)N)NC(=O)[C@H]([C@@H](C)CC)NC1=O [894_3190]
14 | > 9.00 | CC[C@H](C)[C@@H]1NC(=O)[C@H](Cc2ccc(OCC(=O)O)cc2)NC(=O)[C@H](Cc2ccc(O)cc2)NC(=O)[C@H](CC(N)=O)NC(=O)[C@H](Cc2cn(CC(=O)O)c3ccccc23)NC(=O)[C@H](C(C)C)NC(=O)[C@H](Cc2cccc(Cl)c2)N(C)C(=O)[C@H](C(C)C)NC(=O)[C@H](C)NC(=O)CSC[C@@H](C(=O)NCC(=O)N[C@H](CCC(=O)O)C(=O)N[C@H](CCC(=O)O)C(=O)N[C@H](CCC(=O)O)C(=O)N[C@H](CO)C(=O)N[C@H](CO)C(=O)N[C@@H](CCCCNC(=O)OC[C@@H]2[C@@H]3CCC#CCC[C@@H]32)C(N)=O)NC(=O)[C@H](Cc2ccc(O)cc2)N(C)C(=O)[C@H](Cc2ccccc2)NC(=O)[C@H](CCCNC(=N)N)NC(=O)[C@H](CCCNC(=N)N)NC(=O)[C@H]([C@@H](C)CC)NC1=O [894_3197]
